{
  "source": "patent US20060134239A1",
  "about": "“Agents against microorganisms containing patchouli oil, patchouli alcohol and/or the derivatives thereof” (priority 2003, published 2006)",
  "format_in_all_cases": "cell-based",
  "key": {"[1]": {"tested_on": "Aspergillus niger, DSM 1988", "experiment": "Sporulation of Aspergillus niger on the surface of an acetate silicone jointing compound (Example 3)", "details": "for Sporulation [%]: control series", "method": "Effect on Patchouli Oil on the Sporulation of Aspergillus niger on the Surface of an Acetate Jointing Compound\nCommercially available, but preservative-free, one-component silicone jointing compounds curing at room temperature (acetate system, cured 2.2×2.2×0.3 cm pieces of film) were disinfected with 70% EtOH (ethanol) and placed for 24 h in active component solutions with various concentrations. The test specimens were then re-washed twice with EtOH, rinsed with distilled water (sterile) and dried for 24 h. The test specimens were weighed before and after this treatment and the quantity of active component in the test specimens was thus determined together with the concentration of the active component solution. The test specimens were then placed on wort agar plates and thinly coated with agar in which fungal spores had been incorporated (10^5 CFU/ml Aspergillus niger, DSM 1988). The plates were incubated for 3 days at 25° C. Sporulation was visually evaluated from the test specimens and the sporulation rate in [%] was determined."}, "[2]": {"tested_on": "Aspergillus niger (DSM 1988)", "experiment": "Sporulation of Aspergillus niger on a filter surface after 2 applications (Example 4)", "details": "for Sporulation [%]: 3 days at 25° C.", "method": "Effect of Patchouli Oil on the Sporulation of Aspergillus niger on a Filter Surface after 2 Applications\nFilter papers (2×2 cm) were disinfected and treated twice with a 1 hour interval with 50 μl of active-component solutions (in ethanol) differing in concentration. The test specimens were then dried. The test specimens were then placed on wort agar plates and the surface of the wort agar plates was contaminated with 100 μl of a germ suspension (10^3 CFU/ml) of Aspergillus niger (DSM 1988). The plates were incubated for 3 days at 25° C. Sporulation was visually evaluated and the sporulation rate in [%] was determined. […] Sporulation was inhibited by increasing concentrations of eugenol and was 95% suppressed at 90 μm."}, "[3]": {"tested_on": "Aspergillus niger (DSM 1988)", "experiment": "Sporulation of Aspergillus niger on wort agar plates with active component in the agar (Example 1)", "details": "control series", "method": "Effect of Patchouli Oil on the Sporulation of Aspergillus niger\n(§1) Contamination of the surface of wort agar plates with 100 μl of a germ suspension (10^3 CFU/ml) of Aspergillus niger (DSM 1988). Various quantities of active component (dissolved in ethanol, for final concentrations see Table 1) were added to the agar plates beforehand. The plates were incubated for 3 days at 25° C. Sporulation was visually evaluated and the sporulation rate in [%] was determined.\nActive component: patchouli oil obtained by steam distillation (mixture of patchouli oil from Kaders, Sensient, Polarome and Nitsche)"}, "[4]": {"tested_on": "Aspergillus niger (DSM 1988)", "experiment": "Sporulation of Aspergillus niger on wort agar plates, patchouli alcohol (Example 2)", "method": "Effect of Patchouli Alcohol on the Sporulation of Aspergillus niger\nas §1, with “component (solutions” for “component (dissolved”, “Table 2)” for “Table 1)”, “for 5” for “for 3”, “determined. […] Sporulation was inhibited with increasing concentrations and was 95% suppressed at 450 μm.” for “determined.”"}},
  "data": [
    {"smiles": "C=CCc1ccc(O)c(OC)c1", "note": "[eugenol]", "values": [
      {"measurement": "Suppression of sporulation", "setting": "[1]; at 9 μm/g jointing compound", "value": "completely suppressed"},
      {"measurement": "Suppression of sporulation", "setting": "[2]; at 90 μm", "value": 95, "unit": "%"}
    ]},
    {"smiles": "CC(C)=CCCC(C)=CCCC(C)=CCO", "note": "[farnesol]", "values": [
      {"measurement": "Sporulation [%]", "setting": "[3]; concentration 25 μm in wort agar", "value": 90, "unit": "%"},
      {"measurement": "Sporulation [%]", "setting": "[3]; concentration 62.5 μm in wort agar", "value": 75, "unit": "%"},
      {"measurement": "Sporulation [%]", "setting": "[3]; concentration 125 μm in wort agar", "value": 50, "unit": "%"},
      {"measurement": "Sporulation [%]", "setting": "[3]; concentration 250 μm in wort agar", "value": 10, "unit": "%"},
      {"measurement": "Sporulation [%]", "setting": "[3]; concentration 500 μm in wort agar", "value": 0, "unit": "%"},
      {"measurement": "Sporulation [%]", "setting": "[1]; 0.4 μm/g jointing compound", "value": 100, "unit": "%"},
      {"measurement": "Sporulation [%]", "setting": "[1]; 1.1 μm/g jointing compound", "value": 100, "unit": "%"},
      {"measurement": "Sporulation [%]", "setting": "[1]; 17 μm/g jointing compound", "value": 30, "unit": "%"},
      {"measurement": "Inhibition of sporulation compared with identical concentrations of patchouli oil", "setting": "[1]; parallel test series on jointing compound", "value": "inhibited, but to a far lesser extent"},
      {"measurement": "Inhibition of sporulation compared with identical concentrations of patchouli oil", "setting": "[2]; second, parallel test series on filter paper", "value": "inhibited, but to a lesser extent"},
      {"measurement": "Sporulation [%]", "setting": "[2]; solution concentration 0.5 μm, filter paper treated twice with 50 μl", "value": 100, "unit": "%"},
      {"measurement": "Sporulation [%]", "setting": "[2]; solution concentration 5 μm, filter paper treated twice", "value": 100, "unit": "%"},
      {"measurement": "Sporulation [%]", "setting": "[2]; solution concentration 25 μm, filter paper treated twice", "value": 100, "unit": "%"},
      {"measurement": "Sporulation [%]", "setting": "[2]; solution concentration 35 μm, filter paper treated twice", "value": 60, "unit": "%"},
      {"measurement": "Sporulation [%]", "setting": "[2]; solution concentration 50 μm, filter paper treated twice", "value": 80, "unit": "%"},
      {"measurement": "Sporulation [%]", "setting": "[2]; solution concentration 70 μm, filter paper treated twice", "value": 50, "unit": "%"},
      {"measurement": "Sporulation [%]", "setting": "[2]; solution concentration 90 μm, filter paper treated twice", "value": 40, "unit": "%"}
    ]},
    {"smiles": "C[C@H]1CC[C@@]2(O)C(C)(C)[C@@H]3CC[C@@]2(C)[C@H]1C3", "note": "[patchouli alcohol, Patchouli alcohol]", "values": [
      {"measurement": "Inhibition of growth of the test strain", "setting": "[4]; all concentrations used (up to 450 μm)", "value": "None of the active component concentrations used inhibited the growth"},
      {"measurement": "Suppression of sporulation", "setting": "[4]; at 450 μm, 5 days at 25° C.", "value": 95, "unit": "%"},
      {"measurement": "Sporulation [%]", "setting": "[4]; concentration 225 μm in wort agar, 5 days at 25° C.", "value": 95, "unit": "%"},
      {"measurement": "Sporulation [%]", "setting": "[4]; concentration 450 μm in wort agar, 5 days at 25° C.", "value": 5, "unit": "%"}
    ]}
  ]
}
